Series [1] has as its system p-histone H3, cyclin B1 and BuBR1 in HeLa cells. As to the kind of experiment: Cell cycle associated proteins assay. It counts as cell-based, human. To be noted: 24 h, western blot and qPCR. The protocol: A. HeLa cells were treated with 69, 70, 97 or DMSO for 24 h. After being harvested, the cells were lysed, and the concentrations of total protein were determined by BCA protein assay kit (Beyotime, China). […] The membrane was blocked with 5% BSA in TBST for 1.5 h, then incubated overnight with specific primary antibodies (Proteintech) at 4° C. After being washed three times by TBST, the membrane was incubated with specific secondary antibodies (Abnova, Taipei, China) at room temperature for 2 h. Finally, chemiluminescent reagents (Millipore) were employed to detect the protein bands.
B. Quantitative PCR assay: HeLa cells were treated with 69, 70 or 97. The expression level of mRNA of target proteins was tested with qPCR kit (Takara).
Background: A western blot detects proteins with antibodies after separation by electrophoresis.

The test system of series [2] is human umbilical veinendothelial cells (HUVECs). As to the kind of experiment: Capillary-like tube formation assay. To be noted: HUVECs on matrigel, 12 h. Format: cell-based. The method, then: […] matrigel (Corning) per well was added to 96-well plate and pre-incubated at 37° C. for 1 h for gelation. 3*10^4 human umbilical veinendothelial cells (HUVECs) in […] medium per well containing indicated concentrations of 69, 70 and 97, CA-4 as positive control, or diluent (0.2% DMSO) as negative control, respectively, were seeded to 96-well plates on the matrigel layer, followed by continual incubation at 37° C. for 12 h to allow capillary-like tube formation. Images were captured with a CCD Sensicam camera mounted on an Olympus inverted microscope. Representative data from three independent experiments were shown.

For series [3], the system named is VEGF induced angiogenesis. As to the kind of experiment: Matrigel plug assay. Format: in vivo, Balb/C nude mice. The conditions noted are these: nude mice, s.c. matrigel with 100 ng/mL VEGF-A165, 2 weeks. The protocol: 6 weeks old female Balb/C nude mice were purchased from Shanghai Slac Laboratory Animal Co. Ltd. (Shanghai, China). Matrigel containing 100 ng/mL human recombinant VEGF-A165 (Peprotech, Rocky Hill, N.J.) were mixed with indicated concentrations of 69, 70 and 97, or diluent (0.2% DMSO) as negative control at 4° C. Then, 0.5 mL of the matrigel mixture per mouse was injected subcutaneously into nude mice (n=4) in the dorsal region to generate matrigel plugs. 2 weeks later, the mice were sacrificed and matrigel plugs were recovered. Representative data from three independent experiments were shown.

A further series has as its system A2780 cells xenograft. As to the kind of experiment: Xenografts tumor growth assay in nude mice. Format: in vivo, Balb/c nude mice. The conditions noted are these: i.p. once every 2 days, 69 7.5 mg/kg, 70 12.5 mg/kg, 97 4 or 8 mg/kg. The method, then: 6 weeks old female Balb/c nude mice were purchased from Shanghai Slac Laboratory Animal Co. Ltd. (Shanghai, China). 2*10^6 A2780 cells suspended in 0.2 mL PBS per mouse was injected subcutaneously into the nude mice. […] Administration of agents or vehicle, or agents and measurement of tumor volumes with a digital caliper was done once every 2 days. Tumor volumes were calculated as volume=shortest diameter (W)^2*longest diameter (L)*0.52. When the average tumor volumes of vehicle treated group reached 2000 mm^3 in diameter, the mice were sacrificed and the tumors were isolated and weighed. Visceral organs of the mice as well as solid tumors were further analyzed by H&E staining.

Another series in a line: Acute toxicity assay. Format: in vivo. The conditions noted are these: both sexes, mouse, in vivo, ip; KM mice, single intraperitoneal injection, 14 days. The protocol:
KM mice were housed individually in a specific pathogen free facility. Groups of mice (n=10 per group, half male and half female) were injected intraperitoneally once with various dosages of 69 (95, 70, 50, 35, 25 mg/kg), 70 (500, 425, 350, 275, 200 mg/kg), 97 (275, 200, 150, 125 and 100 mg/kg) or vehicle (8.3% cremohorp EL and 8.3% alcohol in PBS) as negative control, respectively. 69, 70 and 97 was dissolved in cremeohore EL and alcohol mixture (1:1, v/v) and further diluted with PBS (1:5, v/v). The death of mice were monitored daily and recorded up to 14 days after injection.

The next series concerns MDA-MB-231. The series is described as follows: In vitro cell growth inhibition assay (MTT). Format: cell-based, human. The conditions noted are these: MDA-MB-231 human breast cancer cell line, 48 h, MTT; read-out: IC50 MDA-MB-231. The method, boiled down:
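IC50 values come from growth inhibition rates calculated from MTT absorbance at 540 nm. Compound exposure lasted 48 h on cells plated at 5000 per well.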

A further series has as its system A2780. As to the kind of experiment: In vitro cell growth inhibition assay (MTT). Format: cell-based, human. To be noted: A2780 human ovarian cancer cell line, 48 h, MTT; read-out: IC50 A2780. The method, boiled down:
(§1)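 SKOV3, A2780 or HeLa cells were seeded at 5000 per well, allowed to adhere overnight, then treated 48 h with compounds; 0.2% DMSO served as control. IC50 values came from growth inhibition rates.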

In a further series the test system is Hela. The series is described as follows: In vitro cell growth inhibition assay (MTT). The conditions noted are these: Hela human cervical cancer cell line, 48 h, MTT; read-out: IC50 Hela. Format: cell-based, human. The method, boiled down: as §1
For another series, the system named is SKOV3. As to the kind of experiment: In vitro cell growth inhibition assay (MTT). It counts as cell-based, human. To be noted: SK-OV-3; SKOV-3 human ovarian cancer cell line, 48 h, MTT; read-out: IC50 SKOV3. The procedure, abridged:
as §1

The structures appear in SMILES notation. “Also recorded” adds a separate entry of the source.

Turning to `COc1ccc([C@H]2[C@H](CO)C(=O)N2c2cc(OC)c(OC)c(OC)c2)cc1O` [Compound 69, (3R,4R)-4-(3-hydroxy-4-methoxyphenyl)-3-(hydroxymethyl)-1-(3,4,5-trimethoxyphenyl)azetidin-2-one], the “expression of p-histone H3, cyclin B1 and BuBR1” value (from here on “expression of p-histone H3”) in series [1] was “significantly promote the expression of phosphorylated histone H3, cyclinB1, and mitotic checkpoint protein BuBR1; also recorded: significantly induce the expression of p-histone H3, cyclin B1 and BuBR1”. In addition, the capillary-like tube formation result in [2] is reported as “significantly inhibit the formation of capillary-like structures; also recorded: almost completely disrupted the capillary-like tube formation”. The “VEGF induced angiogenesis in matrigel plugs” value (“VEGF induced angiogenesis” for short) in series [3] was “significantly inhibit VEGF-mediated neovascularization; also recorded: suppressed VEGF induced angiogenesis”. For the same compound, in the series on A2780 cells xenograft, the “H&E staining of liver, kidney and spleen” value was “no abnormal areas are observed in tissue staining of liver, kidney and spleen; also recorded: no detectable abnormalities were observed in liver, kidney and spleen”; the “H&E staining of tumor sections” value is recorded as “cause tumor tissue to produce necrotic areas; also recorded: extensive areas of necrosis or cell death”; the mouse body weight entry was “no significant influence on mouse body weight; also recorded: no significant weight loss observed”; the “tumor growth in vivo” value is given as “significantly inhibit tumor growth in vivo; also recorded: anti-tumor activities in vivo”.

For the compound `COc1ccc([C@H]2[C@@H](C)C(=O)N2c2cc(OC)c(OC)c(OC)c2)cc1O` [Compound 70, (3R,4R)-4-(3-hydroxy-4-methoxyphenyl)-3-methyl-1-(3,4,5-trimethoxyphenyl)azetidin-2-one], the “expression of p-histone H3” value in series [1] was “significantly promote the expression of phosphorylated histone H3, cyclinB1, and mitotic checkpoint protein BuBR1; also recorded: significantly induce the expression of p-histone H3, cyclin B1 and BuBR1”. For the same compound, in “Acute toxicity assay”, the median lethal dose (LD50) (commonly the dose at which mortality reaches 50%) at 14 days was > 500 mg/kg. Besides, the IC50 (as a rule, the concentration at which inhibition is half-maximal) was 67 nM with MDA-MB-231, 35 nM in the series with A2780, 74 nM in the series with Hela and 51 nM in the series with SKOV3. Also, the capillary-like tube formation result in [2] is reported as “significantly inhibit the formation of capillary-like structures; also recorded: almost completely disrupted the capillary-like tube formation”. The “VEGF induced angiogenesis” value in series [3] is on record as “significantly inhibit VEGF-mediated neovascularization; also recorded: suppressed VEGF induced angiogenesis”. In the series on A2780 cells xenograft, the “H&E staining of liver, kidney and spleen” value was “no abnormal areas are observed in tissue staining of liver, kidney and spleen; also recorded: no detectable abnormalities were observed in liver, kidney and spleen”. The “H&E staining of tumor sections” value in the series on A2780 cells xenograft is “cause tumor tissue to produce necrotic areas; also recorded: extensive areas of necrosis or cell death”. Besides, the mouse body weight entry in the series on A2780 cells xenograft is “no significant influence on mouse body weight; also recorded: no significant weight loss observed”. The “tumor growth in vivo” value with A2780 cells xenograft is “significantly inhibit tumor growth in vivo; also recorded: anti-tumor activities in vivo”.

Regarding `COc1ccc([C@H]2[C@H](C)C(=O)N2c2cc(OC)c(OC)c(OC)c2)cc1O` [Compound 97, (3S,4R)-4-(3-hydroxy-4-methoxyphenyl)-3-methyl-1-(3,4,5-trimethoxyphenyl)azetidin-2-one], in series [1], the “expression of p-histone H3” value is “significantly promote the expression of phosphorylated histone H3, cyclinB1, and mitotic checkpoint protein BuBR1; also recorded: significantly induce the expression of p-histone H3, cyclin B1 and BuBR1”. The IC50 in the series with MDA-MB-231 is 3 nM; in the series on A2780, 2 nM; in the series with Hela, 1 nM; in the series with SKOV3, 3 nM. Moreover, in [2], the capillary-like tube formation entry was “significantly inhibit the formation of capillary-like structures; also recorded: almost completely disrupted the capillary-like tube formation”. Moreover, the “VEGF induced angiogenesis” value in series [3] was “significantly inhibit VEGF-mediated neovascularization; also recorded: suppressed VEGF induced angiogenesis”. Also, in the series with A2780 cells xenograft, the “H&E staining of liver, kidney and spleen” value was “no abnormal areas are observed in tissue staining of liver, kidney and spleen; also recorded: no detectable abnormalities were observed in liver, kidney and spleen”. In addition, the “H&E staining of tumor sections” value with A2780 cells xenograft is “cause tumor tissue to produce necrotic areas; also recorded: extensive areas of necrosis or cell death”. Also, the mouse body weight entry in the series on A2780 cells xenograft is reported as “no significant influence on mouse body weight; also recorded: no significant weight loss observed”. In addition, in the series on A2780 cells xenograft, the “tumor growth in vivo” value was “significantly inhibit tumor growth in vivo; also recorded: anti-tumor activities in vivo”.

The record behind these values is US20200392150A1, “Diaryl-B-Lactam Compound and Preparation Method and Pharmaceutical Use Thereof” (Fudan University, priority 2016, published 2020).
